Source: patent publication US12071404B2, “Aza (indole)-, benzothiophene-, and benzofuran-3-sulfonamides” (UCB Pharma GmbH, priority 2016, dated 2024)

How the values were obtained:
[1] = tested on: cuprizone-induced demyelination; assay: Acute cuprizone mice model (PLP immunohistochemistry in corpus callosum); format: in vivo, C57BI/6 J mice; conditions: oral, daily, 6 mg/kg and 20 mg/kg, vs vehicle p<0.01, FIG. 5
GPR17 [2] = target: T1, GPR17 (Homo sapiens, UniProt Q13304); assay: Calcium mobilization functional assay (GPR17 Ca2+ assay); format: cell-based; parameters: host or cells: Flp-In T-REx CHO; conditions: CHO hGPR17 cells, inhibition of 50 nM MDL29,951, Calcium 5 dye, FLIPR; read-out: Ca2+ assay pIC50 (converted)
Outline: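 pIC50 values were fitted with a 4-parameter logistic curve. They reflect test-compound inhibition of cytosolic Ca2+ release evoked by 50 nM MDL29,951, tracked as Calcium 5 fluorescence at room temperature. Cells were CHO Flp-In T-REx stably carrying human GPR17, induced with doxycycline 1 μg/mL for 16-20 h.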

GPR17 [3] = target: T1, GPR17; assay: cAMP accumulation functional assay (HTRF, Schild analysis); format: cell-based; parameters: host or cells: Flp-In T-REx CHO; conditions: CHO hGPR17 cells, Schild analysis vs MDL29,951, 5 μM forskolin, read-out: cAMP assay pA2 (converted)
Outline: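 Antagonist affinity (pA2) came from Schild plots of dose ratios, based on MDL29,951 concentration-response curves fitted by 4-parameter logistic. The read-out was HTRF cAMP in 5,000 doxycycline-induced CHO hGPR17 cells per well, with 30 min compound preincubation and 60 min stimulation, at room temperature in pH 7.4 buffer.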

[4] = tested on: primary oligodendrocyte progenitor cells (OPCs); assay: MBP fiber plates oligodendrocyte maturation/myelination assay; format: cell-based, rat; conditions: OPCs on aligned fiber plates, 1 μM test compound, 6 days, FIG. 2
Protocol: Primary oligodendrocyte progenitor cells (OPCs) were isolated from the forebrains of Wistar rat pups at postnatal day 0 to 2. Cerebra were mechanically dissociated with a syringe and two different hollow needles (first 1.2×40 and then 0.60×30). Clump-free cell suspension was filtered through a 70-μm cell strainer and plated into poly-D-lysine-coated 75-cm^2 culture flasks in DMEM supplemented with 10% (v/v) heat-inactivated fetal calf serum, penicillin (100 units/mL), and streptomycin (0.1 mg/mL) with medium exchanged every second day. After 8 to 11 days at 37° C. in a humidified atmosphere of 5% CO2, mixed cultures were shaken at 240 rpm for 14-24 h to detach OPCs from astrocytes and microglia. To further enrich for OPCs, the suspension was plated onto uncoated Petri dishes for 45 min. Then, OPCs were seeded into poly-L-ornithine-coated plates and maintained at 37° C. in a humidified atmosphere of 5% CO2 in proliferating Neurobasal medium supplemented with 2% (v/v) B27, 2 mM GlutaMAX, 100 units/mL penicillin, 0.1 mg/mL streptomycin, 10 ng/mL PDGF-AA, and 10 ng/mL basic FGF changing the medium every second day.
The effects of negative modulators of GPR17 on primary oligodendrocytes maturation/myelination can be assessed in vitro by immunoassays using antibodies directed against Myelin Basic Protein (MBP), as marker for mature oligodendrocytes. […]

[5] = Determination of plasma and brain exposure (brain/plasma ratio, brain Kp); format: in vivo; conditions: male Sprague Dawley rats, 3 mg/kg intraperitoneal, approximately 45 minutes after administration, FIG. 3
Protocol: Male Sprague Dawley rats (n=2 per time point) were used to determine the brain penetration of the compounds at 15, 45 and 120 min after 3 mg/kg of intraperitoneal administration.
At each time point, following anesthesia (inhalation of isoflurane) and blood collection (1 mL cardiac puncture into tubes containing K2EDTA) rats were exsanguinated and the brain perfused via the left ventricle (50 mL of heparinized NaCl 0.9% (0.15 UI/mL) flow 50 mL/min).
Brain was collected and weighed. Plasma was obtained from blood samples by centrifugation (3000 g for 15 min at 4° C.). Brain and plasma samples were frozen until time of analysis.
At the time of analysis, brain samples were homogenized in plasma (1:4 v:v) and together with plasma samples, following protein precipitation, were analyzed by HPLC/MS-MS analysis.

T1 sequence (Q13304 whole entry): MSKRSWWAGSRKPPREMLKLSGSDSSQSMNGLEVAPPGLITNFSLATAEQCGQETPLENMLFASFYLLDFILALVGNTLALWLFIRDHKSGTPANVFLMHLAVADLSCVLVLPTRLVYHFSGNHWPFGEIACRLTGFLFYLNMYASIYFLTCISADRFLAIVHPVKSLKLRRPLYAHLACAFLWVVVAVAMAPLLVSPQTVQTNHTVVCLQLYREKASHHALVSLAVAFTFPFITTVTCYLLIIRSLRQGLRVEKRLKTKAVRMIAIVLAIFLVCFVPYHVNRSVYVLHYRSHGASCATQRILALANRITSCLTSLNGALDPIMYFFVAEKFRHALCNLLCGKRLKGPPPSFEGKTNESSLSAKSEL

IC50 (GPR17 [2]) [nM]	Kb (GPR17 [3]) [nM]	Structure (SMILES)	reappearance of myelin-associated proteins (PLP levels in corpus callosum) [1]	myelin sheath length (myelinated fibers by fiber length) [4]	brain concentrations versus plasma exposure [5]
		O=S(=O)(Nc1cc(F)c(Br)cc1F)c1c[nH]c2nc(Cl)ccc12 [Compound I-228, N-(4-bromo-2,5-difluorophenyl)-6-chloro-1H-pyrrolo[2,3-b]pyridine-3-sulfonamide]	accelerates the reappearance of the myelin-associated proteins		
< 3.16	< 3.16	N#Cc1ccc(NS(=O)(=O)c2c[nH]c3cc(Cl)ccc23)c(F)c1 [Compound I-116, 6-chloro-N-(4-cyano-2-fluorophenyl)-1H-indole-3-sulfonamide]		induced longer myelin sheaths	
> 31.6	> 31.6	O=S(=O)(Nc1ccc(F)cc1F)c1c[nH]c2cc(Cl)ccc12 [Compound I-1, 6-chloro-N-(2,4-difluorophenyl)-1H-indole-3-sulfonamide]			displayed brain concentrations paralleling plasma exposure
